“Also recorded” adds a separate entry of the source. Read-outs that look alike come from different tables or passages of the source.
Columns and labels:
[1] = biological target: T1, 11β-HSD1 Dehydrogenase (Rattus norvegicus, UniProt P16232); assay: 11β-HSD1 dehydrogenase assay in rat Leydig cell homogenates; format: biochemical; design: Freshly prepared rat Leydig cell homogenates were chosen since they provide a rich and reliable source of both 11β-HSD1 dehydrogenase and reductase; from tissue; host or cells: rat testicular Leydig cells, homogenate; settings: for inhibitors of 11β-HSD1 dehydrogenase (summary in words): summary of the screening;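 as to all read-outs here: tritiated corticosterone conversion by 11β-HSD1 dehydrogenase in Leydig homogenates with 3 mM NADP at pH 8.4, 37 °C for 10 min, products resolved by HPLC, inhibition relative to uninhibited enzyme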
Description: (§1) Each enzyme reaction (described below) was stopped by adding 750 μL MeOH. After centrifugation, an aliquot of supernatant was analyzed by HPLC using a DuPont Zorbax C8 column.
(§2) 11β-HSD1 dehydrogenase was assayed by incubating homogenates (13,000 cells equivalent) with 600 nM [^3H]-B (0.5 μCi) in the presence of 3 mM NADP, 50 mM Tris-HCl; pH 8.4 at 37° C. for 10 minutes in a total volume of 250 μL. 11β-HSD1 reductase was assayed by incubating homogenates (52,000 cells equivalent) with 600 nM [^3H]-11-dehydro-corticosterone in presence of 3 mM NADPH, 50 mM Tris-HCl; pH 7.4 at 37° C. for 20 minutes in a total volume of 250 μL.
(§3) Each concentration was tested in triplicate and the dose response curve, showing percentage inhibition versus log concentration of steroid was plotted. The data fitted a log-linear straight line.

[2] = biological target: T1, 11β-HSD1 Dehydrogenase; assay: Table 1: inhibition of 11β-HSD1 dehydrogenase; format: biochemical; settings: Table 1, inhibition in words
[3] = biological target: T2, 11β-HSD2 Dehydrogenase (Ovis aries, UniProt P50168); assay: Table 1: inhibition of 11β-HSD2 dehydrogenase; format: biochemical; settings: Table 1, inhibition in words
T2 sequence (P50168 1-427): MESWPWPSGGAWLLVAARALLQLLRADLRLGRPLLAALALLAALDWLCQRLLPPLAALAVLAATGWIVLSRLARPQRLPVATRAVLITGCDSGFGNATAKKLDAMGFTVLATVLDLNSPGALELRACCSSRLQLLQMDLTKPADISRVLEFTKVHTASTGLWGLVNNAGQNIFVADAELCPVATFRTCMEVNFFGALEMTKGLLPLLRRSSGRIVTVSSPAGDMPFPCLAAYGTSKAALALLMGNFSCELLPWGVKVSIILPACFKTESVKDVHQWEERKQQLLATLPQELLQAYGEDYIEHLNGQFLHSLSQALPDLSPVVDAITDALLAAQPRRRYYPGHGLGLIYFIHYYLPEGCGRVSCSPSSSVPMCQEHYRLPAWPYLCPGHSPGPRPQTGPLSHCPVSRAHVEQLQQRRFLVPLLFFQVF

[4] = biological target: T3, 11β-HSD2 (Ovis aries, UniProt P50168); assay: 11β-HSD2 enzyme activity in sheep kidney microsomes; format: biochemical
T3 construct: incubating sheep kidney microsomal fraction (6.5 μg protein) with 50 nM corticosterone; from tissue; host or cells: sheep kidney microsomal fraction
T3 sequence (P50168 1-427): T2 sequence (P50168 1-427)
Description: The enzymatic reaction was termninated by addition of methanol and synthesis of 11-dehydro-corticosterone was quantitated by HPLC as described above.

[5] = biological target: T4, 11β-HSD1 Reductase (Rattus norvegicus, UniProt P16232); assay: Table 1: inhibition of 11β-HSD1 reductase; format: biochemical; settings: Table 1, inhibition in words
[6] = biological target: T4, 11β-HSD1 Reductase; assay: 11β-HSD1 reductase assay in rat Leydig cell homogenates; settings: for inhibitors of 11β-HSD1 reductase (summary in words): summary of the screening;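 as to all read-outs here: rat Leydig cell homogenate incubated 20 min at 37 °C, pH 7.4, with tritiated 11-dehydro-corticosterone and 3 mM NADPH, product measured by HPLC, inhibition from triplicate dose–response curves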
Description: as §1, §2, §3

[7] = rat Leydig cell homogenates, 600 nM corticosterone, progesterone and androgen derivatives
[8] = sheep kidney microsomes, corticosterone substrate, progesterone and androgen derivatives
[9] = rat Leydig cell homogenates, 600 nM corticosterone, NADP, corticosteroid series, read-out: Leydig Cell 11β-HSD1 Dehydrogenase [S]= 600 nM
[10] = rat Leydig cell homogenates, 600 nM corticosterone, NADP, corticosteroid series
[11] = 11β-HSD2, sheep kidney microsomes, 50 nM corticosterone, NAD+, aldosterone, cortisol, corticosterone series, read-out: Dehydrogenase [S] = 50 nM
[12] = rat Leydig cell homogenates, 600 nM 11-dehydro-corticosterone, NADPH, corticosteroid series
[13] = 11β-HSD2, sheep kidney microsomes, 50 nM corticosterone, NAD+, aldosterone, cortisol, corticosterone series
[14] = read-out: Leydig Cell 11β-HSD1 Reductase [S]= 600 nM, rat Leydig cell homogenates, 600 nM 11-dehydro-corticosterone, NADPH, corticosteroid series
[15] = rat Leydig cell homogenates, 600 nM corticosterone, progesterone and androgen derivatives, read-out: Leydig Cell 11β-HSDl Dehydrogenase [S] = 600 nM
[16] = read-out: Leydig Cell 11β-HSD1 Reductase [S] = 600 nM, rat Leydig cell homogenates, 600 nM 11-dehydro-corticosterone, progesterone and androgen derivatives

T4 sequence (P16232 whole entry): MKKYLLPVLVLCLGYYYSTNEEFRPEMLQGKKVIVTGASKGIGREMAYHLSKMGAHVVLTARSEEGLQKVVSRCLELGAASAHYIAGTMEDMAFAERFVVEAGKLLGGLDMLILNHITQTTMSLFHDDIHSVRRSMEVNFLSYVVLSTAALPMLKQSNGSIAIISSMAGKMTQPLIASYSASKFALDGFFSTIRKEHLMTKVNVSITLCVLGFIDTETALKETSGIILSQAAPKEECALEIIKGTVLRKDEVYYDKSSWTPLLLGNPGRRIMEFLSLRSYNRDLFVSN
T1 sequence (P16232 whole entry): as above

Structure (SMILES)	11β-HSD1 Dehydrogenase [2]	11β-HSD1 Reductase [5]	IC50 [6] [µM]	IC50 [1, 9] [µM]	Leydig Cell 11β-HSD1 Dehydrogenase [S]= 600 nM [1, 10]	IC50 [4, 11] [µM]	Leydig Cell 11β-HSD1 Reductase [S]= 600 nM [6, 12]	further results
C[C@]12CCC(=O)C=C1CC[C@@H]1[C@H]2C(=O)C[C@]2(C)C(=O)CC[C@H]12 (stereo in doubt) [11 -Keto-Androstenedione, 4-Androsten-11,3,17-trione]	No Inhibition	Selective Inhibitor	21	–	–	–	–	IC50 [1]: > 100 µM; Leydig Cell 11β-HSDl Dehydrogenase [S] = 600 nM [1, 7]: inactive; 11β-HSD2 Dehydrogenase [3]: No Inhibition; IC50 [4]: > 10 µM; Sheep kidney 11β-HSD2 [S] = 50 nM [4, 8]: inactive
C[C@]12CC[C@@H](O)C[C@@H]1CC[C@@H]1[C@@H]2C(=O)C[C@@]2(C)[C@H]1CC[C@]2(O)C(=O)CO [3α,5α-TH- Cortisone, 5α-Pregnan-3α,17α,21-triol-11,20-dione]	–	–	4.3	> 100	–	–	–	–
C[C@]12CC[C@@H](O)C[C@@H]1CC[C@@H]1[C@@H]2[C@@H](O)C[C@@]2(C)[C@H]1CC[C@]2(O)C(=O)CO [3α,5α-TH-Cortisol, 5α-Pregnan-3α,11β,17α,21-tetrol-20-one]	–	–	> 100	14	inactive	8	inactive	–
C[C@]12CC[C@@H](O)C[C@H]1CC[C@@H]1[C@H]2C(=O)C[C@]2(C)[C@@H](O)CC[C@@H]12 [3α,5α-reduced-11-keto-testosterone]	No Inhibition	Selective Inhibitor	–	–	–	–	–	–
C[C@]12CC[C@@H](O)C[C@H]1CC[C@H]1[C@@H]3CC[C@H](C(=O)CO)[C@@]3(C)CC(=O)[C@@H]12 [3α,5β-TH- 11 -dehydro-corticosterone, 5β-Pregnan-3α,21-diol-11,20-dione]	–	–	–	> 100	inactive	> 10	inactive	Dehydrogenase [S] = 50 nM [4, 13]: inactive; IC50 [6, 14]: > 100 µM
C[C@]12CC[C@@H](O)C[C@H]1CC[C@@H]1[C@@H]2[C@@H](O)C[C@]2(C=O)[C@@H](C(=O)CO)CC[C@@H]12 [3α,5β-TH-Aldosterone, 5β-Pregnan-3α,11β,21-triol-20-one-18-al]	–	–	–	> 100	inactive	> 10	inactive	Dehydrogenase [S] = 50 nM [4, 13]: inactive; IC50 [6, 14]: > 100 µM
C[C@]12CC[C@@H](O)C[C@H]1CC[C@@H]1[C@@H]2[C@@H](O)C[C@]2(C)[C@@H](C(=O)CO)CC[C@@H]12 [3α,5β-TH-Corticosterone, 5β-Pregnan-3α,11β,21-triol-20-one]	–	–	> 100	> 100	inactive	> 10	inactive	Dehydrogenase [S] = 50 nM [4, 13]: inactive
C[C@]12CC[C@@H](O)C[C@H]1CC[C@@H]1[C@@H]2[C@@H](O)C[C@@]2(C)[C@H]1CC[C@]2(O)C(=O)CO [3α,5β-TH-Cortisol, 5β-Pregnan-3α,11β,17α,21-tetrol-20-one]	–	–	> 100	> 100	inactive	> 10	inactive	Dehydrogenase [S] = 50 nM [4, 13]: inactive
C[C@]12CC[C@@H](O)C[C@H]1CC[C@@H]1[C@@H]2C(=O)C[C@@]2(C)[C@H]1CC[C@]2(O)C(=O)CO [3α,5β-TH-Cortisone, 5β-Pregnan-3α, 17α,21-triol-11,20-dione]	–	–	60	> 100	–	–	–	–
C[C@]12CC[C@@H](O)C[C@H]1CC[C@@H]1[C@H]2[C@@H](O)C[C@]2(C)C(=O)CC[C@H]12 [3α,5β-reduced- 11β-OH- androstenedione]	Moderate Inhibitor	No Inhibition	–	–	–	–	–	11β-HSD2 Dehydrogenase [3]: Potent Inhibitor (Non-Selective)
C[C@]12CC[C@H](O)C[C@@H]1CC[C@H]1[C@@H]3CC[C@H](O)[C@@]3(C)CC(=O)[C@@H]12 [11 -Keto-3β,5α-TH-Testosterone]	–	–	–	–	–	–	–	Leydig Cell 11β-HSDl Dehydrogenase [S] = 600 nM [1, 7]: weak inhibitor; IC50 [1, 15]: 50 µM; IC50 ([4]; sheep kidney microsomes, corticosterone substrate, progesterone and androgen derivatives, read-out: Sheep kidney 11β-HSD2 [S] = 50 nM): 8 µM; IC50 [6, 16]: 0.65 µM; inhibitors of 11β-HSD1 reductase (summary in words) ([6]; listed as 11-Keto-3β,5α-TH-Testosterone): potent inhibitors; inhibitors of 11β-HSD1 reductase (summary in words) ([6]; listed as 11-keto-3β,5α-TH-testosterone): high potency
C[C@]12CC[C@@H](O)C[C@H]1CC[C@@H]1[C@H]2C(=O)C[C@]2(C)C(=O)CC[C@@H]12 [11 -Keto-androsterone, 5α-Androstan-3a-ol-11,1 7-dione]	No Inhibition	Selective Inhibitor	> 100	–	–	–	–	IC50 [1]: > 100 µM; IC50 [4]: > 10 µM
C[C@]12CC[C@@H](O)C[C@H]1CC[C@@H]1[C@@H]2C(=O)C[C@]2(C)C(=O)CC[C@@H]12 [11 -Keto-etiocholanolone]	–	–	–	–	–	–	–	IC50 [1, 15]: > 100 µM; IC50 [6, 16]: > 100 µM
CC(=O)[C@H]1CC[C@@H]2[C@@H]3CCC4=CC(=O)CC[C@]4(C)[C@@H]3[C@@H](O)C[C@]12C [11β-OH-Progesterone, 4-Pregnen-11β-ol-3,20-dione]	Potent Inhibitor (Non-Selective)	No Inhibition	> 100	–	–	–	–	IC50 [1, 15]: 5.6 µM; inhibitors of 11β-HSD1 dehydrogenase (summary in words) [1]: potent inhibitors; also recorded: high potency; inhibitors of 11β-HSD1 dehydrogenase (summary in words) ([1]; listed as 11β-hydroxy-progesterone): potently inhibit; Leydig Cell 11β-HSD1 Reductase [S]= 600 nM ([6]; rat Leydig cell homogenates, 600 nM 11-dehydro-corticosterone, progesterone and androgen derivatives): inactive
C[C@]12CC[C@@H](O)C[C@@H]1CC[C@@H]1[C@@H]2[C@@H](O)C[C@]2(C)[C@@H](O)CC[C@@H]12 [11β-OH-androstanediol, 5α-Androstan-3α,11β,17β-triol]	–	–	11.5	–	–	–	–	IC50 [1]: 5 µM; inhibitors of 11β-HSD1 dehydrogenase (summary in words) [1]: potent inhibitors; also recorded: high potency; IC50 [4]: 4.5 µM
C[C@]12CC[C@@H](O)C[C@@H]1CC[C@@H]1[C@@H]2[C@@H](O)C[C@]2(C)C(=O)CC[C@@H]12 [11β-OH-androsterone, 5α-Androstan-3ct,11β-diol-17-one]	–	–	> 100	–	–	–	–	IC50 [1]: > 100 µM; IC50 [4]: > 10 µM
C[C@]12CC[C@@H](O)C[C@H]1CC[C@@H]1[C@@H]2[C@@H](O)C[C@]2(C)C(=O)CC[C@@H]12 [11β-OH-etiocholanolone]	–	–	–	–	–	–	–	IC50 [1, 15]: > 100 µM; IC50 [6, 16]: > 100 µM
CC(=O)[C@H]1CC[C@H]2[C@@H]3CC[C@@H]4C[C@H](O)CC[C@]4(C)[C@H]3[C@@H](O)C[C@]12C [11β-OH-pregnanolone, 5β-Pregnan-3α,11β-diol-20-one]	–	–	80	–	–	–	–	IC50 [1]: 30 µM; IC50 [4]: > 10 µM; Sheep kidney 11β-HSD2 [S] = 50 nM [4, 8]: inactive
C[C@]12CCC(=O)C=C1CC[C@@H]1[C@@H]2[C@@H](O)C[C@]2(C=O)[C@@H](C(=O)CO)CC[C@@H]12 [Aldosterone, 4-Pregnen-11,21-diol-3,20-dione-18-al, reference compound]	–	–	> 100	> 100	inactive	> 10	inactive	Dehydrogenase [S] = 50 nM [4, 13]: inactive
C[C@H](CCC(=O)O)[C@H]1CC[C@H]2[C@@H]3[C@H](O)C[C@@H]4C[C@H](O)CC[C@]4(C)[C@H]3CC[C@]12C [chenodeoxycholic acid]	Selective inhibitor	No Inhibition	–	–	–	–	–	11β-HSD2 Dehydrogenase [3]: No Inhibition

— patent US20070093460A1, “Methods of using selective 11beta-HSD inhibitors to treat gluocorticoid associated states” (priority 2005, published 2007)
